# In patent US6740680B1, “Pharmaceutical compositions to tetrac and methods of use thereof” (Becton Pharma, Inc., priority 1999, dated 2004):
# Tests used:
# Monodeiodinase type 2 = molecular target: T1, Monodeiodinase type 2 (Rattus norvegicus, UniProt P70551); experiment: Addition of Tetrac to monodeiodinase type 2 assay with microsomal protein from brain cortex; type: biochemical; settings: 1 fmol Tetrac/μg protein added
# T1 construct: monodeiodinase type 2 assay using microsomol protein from brain cortex; from tissue; host or cells: brain cortex microsomal protein
# T1 sequence (P70551 1-266): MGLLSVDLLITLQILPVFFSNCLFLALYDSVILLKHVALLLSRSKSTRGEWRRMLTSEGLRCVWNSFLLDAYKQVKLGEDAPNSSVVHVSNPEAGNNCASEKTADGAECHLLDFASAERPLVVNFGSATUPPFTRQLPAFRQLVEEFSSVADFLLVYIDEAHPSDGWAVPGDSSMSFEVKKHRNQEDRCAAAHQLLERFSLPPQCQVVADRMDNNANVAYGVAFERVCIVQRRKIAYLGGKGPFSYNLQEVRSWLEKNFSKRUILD
# Protocol: Monodeiodinase type 1 and 2 activities. Monodeiodinase type 1 and type 2 activities were determined in tissue homogenates by measuring the release of radioiodide from [^125I]rT3 according to the method of Leonard and Rosenberg (Leonard, J. L. et al. Endocrinology (1980) 106: 444-451).
# Monodeiodinase type 1 activity was measured in liver homogenates using 1 μM rT3 and 1 mM DTT with 10 min of incubation, whereas for heart, 0.01 μM rT3 and 10 mM DTT with 1 hour of incubation. Monodeiodinase type 2 activity was measured in brown adipose tissue (BAT) and cerebral cortex using 1 nM rT3, 10 mM DTT and 1 mM propylthiouracil (PTU) with 1 hour of incubation. Protein concentrations were measured by the method of Bradford (Bio-Rad Laboratories GmbH, Munich, Germany) with bovine gammaglobulin as the protein standard. In order to study the effect of circulating Tetrac on the enzyme activities, 2 rats were injected intraperitoneally with 10 μCi ^125I Tetrac and killed 6 hours later. The tissue homogenates were extracted with 3 volumes of ethanol-NH3 (97:3). After 10 minutes centrifugation at 15,000 g, the supernatant was vacuum dried and applied to TLC (Merck 254, Toluol, acetic acid, water: 2:2:1). […] The calculated tissue concentrations were: liver: 1.9, heart: 2.29 and brain cortex: 0.47 fluol Tetrac/μg protein. […]
# SERCA 2a mRNA = experiment: Northern blot, SERCA 2a mRNA in heart; type: in vivo, rat; settings: FIG. 2b, compared to T4, p<0.001
# Protocol: Seventy-nine male SIVZ rats were purchased from the breeder (Institut für Labortierkunde des Universität Zürich, Zürich, Switzerland). They were rendered hypothyroid by a single injection of [^131I]Na (100 μCi/rat) and before and throughout the experiment 0.02% 2-mercapto-1-methylimidazol (MMI) was added to drinking water. In order to have an euthyroid control group of similar weight and identical age, 10 rats received only MMI in the drinking water and 2 weeks before implanting the minipumps, MMI was withdrawn. Osmotic minipumps (secretion rate 0.25 μl/hour, duration 14 days) were implanted intraperitoneally (i.p.) 2 months after the injection of [^131I]Na. The minipumps were filled with T4 or Tetrac dissolved in 0.05 N NaOH, 2% BSA and 100,000 cpm [^125I]T4 or [^125I]Tetrac as control of their secretion rates. The infusion lasted 13 days. 0, 1.5, 4.5, 13.5 and 40.5 nmol Tetrac/day/100 g or 0.5, 1.5, 4.5 and 13.5 nmol T4/day/100 g bodyweight (BW) (n=4/dose) were infused. An euthyroid control group was included. The animals were weighed every 2 days. […]
# The amount of labeled mRNA was quantified by scanning laser densitometry (Phosphorimager, Molecular Dynamics; Sunnyvale, USA). Variations in RNA loading and membrane transfer were corrected by densitometric quantification of a negative photograph of 28S and 18S ribosomal RNA bands from ethidium bromide stained RNA gels. […]
compound,measurement,setting,value
"O=C(O)Cc1cc(I)c(Oc2cc(I)c(O)c(I)c2)c(I)c1 [Tetrac, 3,3′,5,5′-tetraiodothyroacetic acid]","Monodeiodinase type 2 activity, % of the full activity",Monodeiodinase type 2,90.5%
same,"SERCA 2a mRNA levels, response to increasing doses (in words)",SERCA 2a mRNA,weak response
